Data published in article PMC7238388, “Biological Evaluation of Newly Synthesized Biaryl Guanidine Derivatives to Arrest β-Secretase Enzymatic Activity Involved in Alzheimer's Disease” (BioMed Research International, 2020).
Where two headings read alike, the source gives them in different places.

Experiments:
BACE1 enzyme = target: T1, BACE1 enzyme (Homo sapiens, UniProt P56817); experiment: BACE1 FRET-based inhibitory activity assay (Sigma-Aldrich kit CS0010); format: biochemical
T1 construct: purchased Sigma-Aldrich CS0010
Protocol: BACE1 inhibitory activity was carried out by adopting the procedures described by the Sigma-Aldrich FRET-based assay activity kit (product # CS0010).
Briefly, the assay was carried out in a fixed volume of 100 μl with the BACE1 substrate (20 μl, 50 μM), assay buffer (78 μl/78-X μl, pH 4.5), test sample(s) (X μl, 100 μM), and BACE1 enzyme (2 μl, ~0.3 unit/μl) incubated at 37°C for 75 min in 96-well microplate reaction mixture. The baseline fluorescence (null time) signal was noticed (at 320 nm) immediately after the addition of BACE1 enzymes while emission signals were monitored at 405 nm at 25°C. Both the enzyme and the substrate were prepared in the buffer while tested samples dissolved primarily in DMSO (5%) subsequently in serially diluted buffer solution in a desired volume of 2 μl, 3 μl, and 5 μl having 200 pmol, 300 pmol, and 500 pmol concentration, respectively. A standard curve was prepared between fluorescent unit (FU) and standard solution (100 μM, 100-500 pmol, and 1-5 μl) to find out 50% BACE1 cleaving activity. The sample blank (buffer with substrate) was treated as the negative control while the positive control was the solution of the buffer with substrate and enzyme mixture (http://www.sigmaaldrich.com). Finally, IC50 of the intended compounds were calculated via GraphPad Prism v8 software.

[1] = test system: AlCl3-induced neurotoxic mice; experiment: Morris water maze test in AlCl3-induced neurotoxicity mice; format: in vivo, BALB/c mice
Protocol: (§1) Male BALB/c mice (3.5 to 5.5 months of age) were purchased from National Institute of Health (NIH) Islamabad, Pakistan. All experiments were performed by following the rules and regulations in accordance with the Helsinki Declaration after getting permission from the Departmental Review Committee (Ref. # PHM.Eth/CS-M01/18-001 dated 05/2018). Animals were kept in standard cages and provided food, water, and cleanliness in accordance with the documented protocols. Moreover, they were categorized into nine groups (n = 10) for experimental purposes.
(§2) The control group of mice was treated with drinking water having aluminum chloride (17 mg/kg) and tape water for a period of five weeks. Synthesized ligands (20-55 mg/kg) were administered to neutralize the AlCl3 effects and to design treated mouse groups. All the behavioral tests were performed on days 28 to 34 (08:30 am to 4:30 pm at 25 ± 2°C). Animals were shifted 20 minutes prior to the experimentation room to get accustomed with the test environment. Trials were recorded via videocam, and results were obtained to reveal the final conclusions.
To evaluate 3D spatial recalling memory of the animals under observations, an authentic and sensitive assay “Morris water maze test” was carried out.
The apparatus used for this test has a round pool with a 120 cm diameter and a 60 cm of depth. The pool is divided into 4 hypothetical quadrants North, West, South, and East. The experiment began on day 28, and 5 trials were executed each day. The mouse was given 1 min to find out the hidden platform with a 10 min interval between the two successive trials. The usual time essential for a mouse to reach at the platform was recorded, and an average of 5 trials was presumed as the escape latency of the animal for that day. On the 32nd day of intervention, a probe test was executed when there was no platform, with a different release position. The spatial memory of the mouse was estimated by computing the time spent by the mouse in the quadrant in which the platform was formerly located. […]

[2] = test system: AlCl3-induced mouse models; experiment: Novel object recognition memory test in AlCl3-induced AD model mice; format: in vivo, BALB/c mice; settings: AD model treated with compound; control 64.44 ± 2.50 s, AD model 31.80 ± 2.00 s; p < 0.05
Protocol: as §1, §2
The novel object recognition memory test is an additional procedure to describe and evaluate the memory of the rodents. The entire methodology was performed in a specific designed box of dimensions about 25 cm × 25 cm × 25 cm at daytime (25 ± 2°C). […]

[3] = BACE1 FRET assay, pH 4.5, 37°C, 75 min, read-out: IC50

T1 sequence (P56817 46-501): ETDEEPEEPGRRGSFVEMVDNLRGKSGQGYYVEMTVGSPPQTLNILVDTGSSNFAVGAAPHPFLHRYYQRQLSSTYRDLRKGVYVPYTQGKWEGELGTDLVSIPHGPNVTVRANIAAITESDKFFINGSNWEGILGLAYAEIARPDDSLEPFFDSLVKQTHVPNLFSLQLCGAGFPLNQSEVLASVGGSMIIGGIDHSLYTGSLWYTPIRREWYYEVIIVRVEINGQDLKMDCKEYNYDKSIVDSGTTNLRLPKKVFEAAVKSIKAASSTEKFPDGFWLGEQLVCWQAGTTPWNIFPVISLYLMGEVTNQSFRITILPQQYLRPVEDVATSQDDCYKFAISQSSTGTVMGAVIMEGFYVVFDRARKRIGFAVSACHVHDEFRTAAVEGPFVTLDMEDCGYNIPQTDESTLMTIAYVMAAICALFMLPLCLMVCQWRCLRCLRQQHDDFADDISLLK

| SMILES | melting point [°C] | IC50 (BACE1 enzyme; [3]) [µM] | further results |
| --- | --- | --- | --- |
| N=C(Nc1ccc(Br)c2ccccc12)Nc1ccc(Br)c2ccccc12 [Compound 2, 1,3-bis(4-bromonaphthalen-1-yl)guanidine] | 128 to 130 | 235 | – |
| N=C(Nc1ccccc1[N+](=O)[O-])Nc1ccccc1[N+](=O)[O-] [Compound 3, 1,3-bis(2-nitrophenyl)guanidine] | 136 to 138 | – | IC50 (BACE1 enzyme): 259 µM |
| N=C(Nc1ccc(Cl)cc1F)Nc1ccc(Cl)cc1F [Compound 11, 1,3-bis(4-chloro-2-fluorophenyl)guanidine] | 160 to 162 | 172 | – |
| N=C(Nc1cnc(F)c(F)c1)Nc1cnc(F)c(F)c1 [Compound 9, 1,3-bis(5,6-difluoropyridin-3-yl)guanidine] | 128 to 130 | – | escape latency ([1]; day 5, AlCl3-induced mice treated with compound, AlCl3 group 50.60 ± 3.70, control 20.20 ± 2.01, p < 0.05, in s (unit assumed)): 27.72 ± 2.60; number of crossings of the targeted quadrant ([1]; probe test, AD model 6.10 ± 1.0, control 19.80 ± 1.90): 16.70 ± 1.07; time spent in exploration of the targeted quadrant ([1]; probe test, per hundred of total time (Figure 2c), AD-induced 23.6 ± 2.01, control 49.60 ± 2.35): 41.07 ± 2.5; exploration time [2]: 53.80 ± 2.15 s |
| N=C(Nc1ccc(Br)cc1)Nc1ccc(Br)cc1 [Compound 10, 1,3-bis(4-bromophenyl)guanidine] | 250 to 252 | 321 | BACE1 inhibition (BACE1 enzyme; FRET assay, at 500 pmol): 35% |
| N=C(Nc1cc(C(F)(F)F)cc(C(F)(F)F)c1)Nc1cc(C(F)(F)F)cc(C(F)(F)F)c1 [Compound 8, 1,3-bis(3,5-bis(trifluoromethyl)phenyl)guanidine] | 76 to 78 | 229 | – |

Further compounds by falling IC50 (BACE1 enzyme; [3]), results first:

| melting point [°C] | IC50 (BACE1 enzyme; [3]) [µM] | SMILES | further results |
| --- | --- | --- | --- |
| 146 to 148 | 159 | N=C(Nc1ccc2ccccc2c1)Nc1ccc2ccccc2c1 [Compound 7, 1,3-di(naphthalen-2-yl)guanidine] | – |
| 146 to 148 | 103 | N=C(Nc1ccc(F)cc1)Nc1ccc(F)cc1 [Compound 12, 1,3-bis(4-fluorophenyl)guanidine] | – |
| 130 to 132 | 85 | N=C(Nc1ccccc1F)Nc1ccccc1F [Compound 1, 1,3-bis(2-fluorophenyl)guanidine] | – |
| – | 71 | N=C(Nc1ccc(F)c(F)c1)Nc1ccc(F)c(F)c1 [Compound 13, 1,3-bis(3,4-difluorophenyl)guanidine] | – |
| 140 to 142 | 9 | N=C(Nc1ccccn1)Nc1ccccn1 [Compound 4, 1,3-di(pyridin-2-yl)guanidine] | – |
| 126 to 128 | 0.102 | N=C(Nc1cc(F)c2ccccc2c1)Nc1cc(F)c2ccccc2c1 [Compound 6, 1,3-bis(4-fluoronaphthalen-2-yl)guanidine] | – |
| 133 to 134 | 0.091 | N=C(Nc1ccc2ncccc2c1)Nc1ccc2ncccc2c1 [Compound 5, 1,3-di(quinolin-6-yl)guanidine] | – |
